We go through eleven compounds from ChEMBL document CHEMBL1201862, “PubChem BioAssay data set” (2004).

“And” between values parts separate entries of the source, which are not always exact repeats. Identical values can stand only once.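 48-hour exposure; five concentrations; linearly interpolated endpoints. GI50 is the concentration that inhibits growth by half.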 The source made the active and inactive calls. Cut-off read from the data, not from the text of the source: active = GI50 up to about 1.1 µM and inactive = higher.

Test systems include A498; ACHN; COLO 205; HCT-116; HOP-92; IGROV-1; KM-20L2; KM12; LOX IMVI; NCI-H226; OVCAR-5; SN12C; SNB-75; SW-620; UACC-257; MCF7; MDA-N; NCI/ADR-RES; T47D.
What all share (assay): NCI tumour cell line growth inhibition, 48 h

`Cc1ccc(S(=O)(=O)ON=C2CC(c3ccccc3)N(C)C(c3ccccc3)C2)cc1` (stereo not given): the GI50 in the test on A498 was 24.3 µM (inactive); in the test with ACHN it was 19.8 µM (inactive); with COLO 205 it was 15.6 µM (inactive) and 14.8 µM (inactive); in the test on HCT-116, 15.9 µM (inactive) and 14.2 µM (inactive); in the test on HOP-92 it was 15.9 µM (inactive) and 15.3 µM (inactive); in the test with IGROV-1 it was 23.5 µM (inactive) and 21.4 µM (inactive). Further, the GI50 was 23 µM (inactive) and 18.4 µM (inactive) in the test on KM-20L2; 16.4 µM (inactive) in the test on KM12; 13.5 µM (inactive) and 14 µM (inactive) in the test with LOX IMVI; 28.7 µM (inactive) and 23.6 µM (inactive) in the test with NCI-H226; 20.8 µM (inactive) with OVCAR-5; 23.6 µM (inactive) in the test with SN12C. Besides, the GI50 was 23.6 µM (inactive) and 26 µM (inactive) in the test with SNB-75; 17.9 µM (inactive) and 15.5 µM (inactive) in the test with SW-620; 18.9 µM (inactive) and 19.3 µM (inactive) with UACC-257.

Turning to `Cc1c2c(n(CC(c3ccccc3)c3ccccc3)c1C)NN=C(C#N)S2(=O)=O`, the GI50 was > 100 µM (inactive) with A498; > 100 µM (inactive) in the test on ACHN; > 100 µM (inactive) in the test on COLO 205; 74 µM (inactive) in the test with HCT-116; > 100 µM (inactive) in the test on HOP-92; > 100 µM (inactive) with IGROV-1. Also, the GI50 is 66.2 µM (inactive) with KM12; > 100 µM (inactive) with LOX IMVI; > 100 µM (inactive) with MCF7; > 100 µM (inactive) with MDA-N; > 100 µM (inactive) with NCI-H226; > 100 µM (inactive) in the test on NCI/ADR-RES. Besides, the GI50 was > 100 µM (inactive) with OVCAR-5; > 100 µM (inactive) in the test on SN12C; 98.4 µM (inactive) in the test on SNB-75; > 100 µM (inactive) with SW-620; > 100 µM (inactive) in the test with T47D; > 100 µM (inactive) in the test on UACC-257.

As for `COC(=O)c1ccccc1CC1Cc2ccc3c(c2C1)CCC3` (stereo not given), the GI50 with A498 was > 100 µM (inactive); with ACHN it was 30.5 µM (inactive); in the test on COLO 205, 17.4 µM (inactive); in the test with HCT-116 it was 23.3 µM (inactive); with HOP-92, 20.1 µM (inactive); in the test with IGROV-1 it was 35.4 µM (inactive). Besides, the GI50 was 30.1 µM (inactive) in the test with KM12; 16 µM (inactive) in the test with LOX IMVI; 14.3 µM (inactive) with MCF7; 34 µM (inactive) with MDA-N; 35.1 µM (inactive) in the test with NCI-H226; 21 µM (inactive) in the test with NCI/ADR-RES. The GI50 is 29.5 µM (inactive) with OVCAR-5; 39.6 µM (inactive) with SN12C; 25.8 µM (inactive) in the test with SNB-75; 39.4 µM (inactive) in the test with SW-620; 22.9 µM (inactive) in the test with T47D; 10.4 µM (inactive) in the test on UACC-257.

As for `COC1=C2CC(C)CC(OC)[C@@H](OC(=O)CCN)[C@H](C)/C=C(\C)C(OC(N)=O)C(OC)/C=C\C=C(/C)C(=O)NC(=CC1=O)C2=O` (stereo not given in full), the GI50 is 17.3 µM (inactive) in the test with A498; 0.773 µM (active) with ACHN; 0.27 µM (active) in the test on COLO 205; 1.82 µM (inactive) in the test with HCT-116; 0.697 µM (active) in the test on HOP-92; 1.29 µM (inactive) in the test on IGROV-1. Further, the GI50 is 2.64 µM (inactive) in the test on KM12; 0.897 µM (active) in the test with LOX IMVI; 0.528 µM (active) in the test with MCF7; 0.78 µM (active) with MDA-N; 20.4 µM (inactive) in the test with NCI-H226; 16.4 µM (inactive) in the test with NCI/ADR-RES. The GI50 is 8.57 µM (inactive) in the test on OVCAR-5; 1.07 µM (active) with SN12C; 20.8 µM (inactive) in the test on SNB-75; 0.357 µM (active) in the test on SW-620; 0.486 µM (active) in the test with T47D; 1.43 µM (inactive) in the test on UACC-257.

Regarding `N#CC[N+]1(Cc2ccccn2)CCCC1.O=S(=O)([O-])c1ccccc1`, the GI50 with A498, with ACHN, in the test on COLO 205, in the test with HCT-116, in the test with HOP-92 and with IGROV-1 was > 100 µM (inactive) throughout. Besides, the GI50 in the test with KM12, in the test with LOX IMVI, in the test on MCF7, with MDA-N, in the test with NCI-H226 and in the test on NCI/ADR-RES was > 100 µM (inactive) throughout. Besides, the GI50 was > 100 µM (inactive) with OVCAR-5; > 100 µM (inactive) in the test with SN12C; 58.9 µM (inactive) in the test with SNB-75; > 100 µM (inactive) in the test on SW-620; > 100 µM (inactive) in the test on T47D; > 100 µM (inactive) with UACC-257.

For `COC(=O)/C=C\C(C#N)(C#N)/N=C/c1ccc(C)s1`, the GI50 was 20.3 µM (inactive) with A498; 1.67 µM (inactive) in the test with ACHN; 1.43 µM (inactive) in the test with COLO 205; 1.32 µM (inactive) in the test with HCT-116; 1.64 µM (inactive) in the test with HOP-92; 2 µM (inactive) in the test on IGROV-1. Further, the GI50 was 13.1 µM (inactive) with KM12; 1.67 µM (inactive) in the test with LOX IMVI; 1.49 µM (inactive) in the test on MCF7; 2.49 µM (inactive) in the test with MDA-N; 16.7 µM (inactive) with NCI-H226; 5.92 µM (inactive) in the test on NCI/ADR-RES. Besides, the GI50 with OVCAR-5 was 6.53 µM (inactive); in the test with SN12C, 2.29 µM (inactive); in the test on SNB-75, 3.12 µM (inactive); in the test on SW-620, 0.668 µM (active); in the test on T47D, 1.58 µM (inactive); in the test on UACC-257, 2.73 µM (inactive).

For the compound `Nc1nc(Cl)c(N)c(NCC2(CO)CC(O)C2)n1` (stereo not given), the GI50 was 67.5 µM (inactive) in the test on A498; > 100 µM (inactive) with ACHN; > 100 µM (inactive) in the test on COLO 205; > 100 µM (inactive) with HCT-116; > 100 µM (inactive) in the test on HOP-92; > 100 µM (inactive) in the test with IGROV-1. Also, the GI50 in the test with KM12, in the test with LOX IMVI, in the test with MCF7, in the test with MDA-N, with NCI-H226 and in the test with NCI/ADR-RES was > 100 µM (inactive) each time. Further, the GI50 in the test on OVCAR-5, in the test with SN12C, with SNB-75, with SW-620, with T47D and in the test on UACC-257 was > 100 µM (inactive) throughout.

`COC1/C=C/C(C)C(C(C)C(OC)C(C)CCC(=O)C(C)C(CC(=O)O)OC)OC(=O)/C=C/C=C(\C)CC(OC)C(OC)C2=CC(=O)O[C@@H](C(C)C(OC)CC(OC)/C=C/C(C)C(O)C1)[C@H]2O` (stereo not given in full): the GI50 was 0.0815 µM (active) with A498; 0.0473 µM (active) with ACHN; 0.0399 µM (active) with COLO 205; 0.00714 µM (active) in the test on HCT-116; 0.0339 µM (active) with HOP-92; 0.0129 µM (active) in the test on IGROV-1. For the same compound, the GI50 in the test with KM12 was 0.0512 µM (active); with LOX IMVI, 0.0188 µM (active); with MCF7 it was 0.0715 µM (active); with MDA-N, 0.0785 µM (active); in the test on NCI-H226 it was 0.0336 µM (active); with NCI/ADR-RES, 0.149 µM (active). Also, the GI50 with OVCAR-5 was 0.265 µM (active); with SN12C it was 0.406 µM (active); in the test with SNB-75 it was 0.0311 µM (active); with SW-620, 0.0242 µM (active); in the test with T47D it was 0.135 µM (active); in the test with UACC-257, 0.0993 µM (active).

Turning to `O=C1c2cccc3cccc(c23)C2NCCCN12` (stereo not given), the GI50 with A498 was > 100 µM (inactive); in the test with ACHN, 68.7 µM (inactive); in the test with COLO 205, > 100 µM (inactive); with HCT-116, > 100 µM (inactive); with HOP-92, > 100 µM (inactive); in the test on IGROV-1, > 100 µM (inactive). The GI50 is > 100 µM (inactive) in the test on KM12; > 100 µM (inactive) in the test on LOX IMVI; 95.3 µM (inactive) in the test with MCF7; > 100 µM (inactive) in the test on MDA-N; 52.8 µM (inactive) in the test on NCI-H226; 99.1 µM (inactive) with NCI/ADR-RES. Besides, the GI50 in the test on OVCAR-5 is > 100 µM (inactive); in the test with SN12C, > 100 µM (inactive); in the test on SNB-75 it was < 0.01 µM (active); in the test with SW-620 it was 94 µM (inactive); in the test with T47D it was > 100 µM (inactive); in the test on UACC-257, > 100 µM (inactive).

As to `C/C(=N/NC(=S)N1CCCCCC1)c1cccc(/C(C)=N\NC(=S)N2CCCCCC2)n1`, the GI50 in the test with A498 was 1.49 µM (inactive); in the test on ACHN, 1.48 µM (inactive); in the test with COLO 205, 1.47 µM (inactive); in the test with HCT-116, 1.66 µM (inactive); in the test on HOP-92, 1.7 µM (inactive); in the test with IGROV-1 it was 1.49 µM (inactive). The GI50 in the test on KM12 is 1.63 µM (inactive); in the test with LOX IMVI, 1.72 µM (inactive); with MCF7, 1.57 µM (inactive); in the test with MDA-N, 2.23 µM (inactive); in the test on NCI-H226, 1.75 µM (inactive); in the test with NCI/ADR-RES it was 1.69 µM (inactive). Also, the GI50 in the test on OVCAR-5 was 2.24 µM (inactive); in the test with SN12C, 2.09 µM (inactive); in the test on SNB-75 it was 1.95 µM (inactive); in the test with SW-620, 1.11 µM (active); in the test with T47D, 2.31 µM (inactive); in the test with UACC-257, 1.58 µM (inactive).

For the compound `CSc1nnc(SC)nn1`, the GI50 was > 100 µM (inactive) in the test with A498; 16.8 µM (inactive) in the test with ACHN; 18.7 µM (inactive) in the test on COLO 205; 11 µM (inactive) with HCT-116; 3.84 µM (inactive) in the test on HOP-92; 16.3 µM (inactive) in the test with IGROV-1. For the same compound, the GI50 was 15.3 µM (inactive) with KM12; 19.6 µM (inactive) with LOX IMVI; 17 µM (inactive) in the test on MCF7; 16.1 µM (inactive) in the test on MDA-N; 32.4 µM (inactive) in the test with NCI-H226; 16.8 µM (inactive) with NCI/ADR-RES. Besides, the GI50 in the test with OVCAR-5 was 18.1 µM (inactive); in the test with SN12C, 21.1 µM (inactive); in the test on SNB-75 it was 17.4 µM (inactive); with SW-620 it was 17.2 µM (inactive); in the test on T47D, 2.76 µM (inactive); in the test with UACC-257, 16.6 µM (inactive).
